The target in the experiment is T1, human IL-17A (Homo sapiens, UniProt Q16552).
T1 construct: purchased R&D Systems 7955-IL/CF
T1 sequence (Q16552 24-155): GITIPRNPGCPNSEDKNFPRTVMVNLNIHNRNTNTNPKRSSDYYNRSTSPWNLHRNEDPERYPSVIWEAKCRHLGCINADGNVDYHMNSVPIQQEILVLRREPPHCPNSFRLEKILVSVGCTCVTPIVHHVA
Nature of the experiment: IL-17A AlphaLISA competition assay (block of IL-17A binding to its receptor IL-17RA). The note with it: mean IC50 (n≥2), block of IL-17A binding to IL-17RA. The procedure, abridged: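 Bead-based AlphaLISA competition in PBS with 0.05% Tween-20 and 0.1% BSA: compound first meets human IL-17A (7.5 nM stock) for 30 min, then IL-17RA/Fc (5 nM stock) for 90 min, all at room temperature, before acceptor/donor bead capture. IC50 fitted 4-parameter, DMSO and 4 μM reference inhibitor as controls; at least duplicate.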
On the technique in general: Alpha assays give light when donor and acceptor beads are brought close together.
On to `CC(c1ccnc(NC(=O)[C@@H](NC(=O)c2ccnn2C)C2CCC(F)(F)CC2)c1)N1C[C@@H](C(F)(F)F)NC1=O` (single isomer, unassigned) [Example 171, N-((1S)-1-(4,4-difluorocyclohexyl)-2-oxo-2-((4-((R or S)-1-((S)-2-oxo-4-(trifluoromethyl)imidazolidin-1-yl)ethyl)pyridin-2-yl)amino)ethyl)-1-methyl-1H-pyrazole-5-carboxamide], for which the IC50 (commonly the point on the concentration scale where inhibition reaches its midpoint) was determined as 0.067 µM.

In turn, `COCC(c1ccnc(NC(=O)[C@@H](NC(=O)c2nonc2C2CC2)C2CCC(F)(F)CC2)c1)[C@@H]1C[C@@H](C(F)(F)F)NC1=O` (single isomer, unassigned) [Example 184, 4-Cyclopropyl-N—((S)-1-(4,4-difluorocyclohexyl)-2-((4-((R or S)-2-methoxy-1-((3S,5S)-2-oxo-5-(trifluoromethyl)pyrrolidin-3-yl)ethyl)pyridin-2-yl)amino)-2-oxoethyl)-1,2,5-oxadiazole-3-carboxamide] had a concentration for half-maximal inhibition (IC50) of 0.637 µM.

`COCC(c1ccnc(NC(=O)[C@@H](NC(=O)c2nonc2C2CC2)C2CCC(F)(F)CC2)c1)[C@H]1C[C@@H](C(F)(F)F)NC1=O` (single isomer, unassigned) [Example 185, 4-Cyclopropyl-N-((1S)-1-(4,4-difluorocyclohexyl)-2-((4-((R or S)-2-methoxy-1-((3R,5S)-2-oxo-5-(trifluoromethyl)pyrrolidin-3-yl)ethyl)pyridin-2-yl)amino)-2-oxoethyl)-1,2,5-oxadiazole-3-carboxamide] yielded an IC50 of 0.046 µM.

For the molecule `COCC(c1ccnc(NC(=O)[C@@H](NC(=O)c2nonc2C2CC2)C2CCC(F)(F)CC2)c1)[C@H]1C[C@@H](C(F)(F)F)NC1=O` (single isomer, unassigned) [Example 186, 4-Cyclopropyl-N-((1S)-1-(4,4-difluorocyclohexyl)-2-((4-((R or S)-2-methoxy-1-((3R,5S)-2-oxo-5-(trifluoromethyl)pyrrolidin-3-yl)ethyl)pyridin-2-yl)amino)-2-oxoethyl)-1,2,5-oxadiazole-3-carboxamide], the 50% inhibitory concentration (IC50) came out at 0.069 µM.

Take `C[C@H]1CC[C@H]([C@H](NC(=O)c2nonc2C2CC2)C(=O)Nc2cc(C(CO)N3C[C@@H](C(F)(F)F)NC3=O)ccn2)CC1` (single isomer, unassigned) [Example 233, 4-Cyclopropyl-N-((1S)-2-((4-((R or S)-2-hydroxy-1-((S)-2-oxo-4-(trifluoro-methyl)imidazolidin-1-yl)ethyl)pyridin-2-yl)amino)-1-((1r,4S)-4-methylcyclohexyl)-2-oxoethyl)-1,2,5-oxadiazole-3-carboxamide]: the IC50 came out at 0.009 µM.

`C[C@H]1CC[C@H]([C@H](NC(=O)c2nonc2C2CC2)C(=O)Nc2cc(C(CO)N3C[C@@H](C(F)(F)F)NC3=O)ccn2)CC1` (single isomer, unassigned) [Example 234, 4-Cyclopropyl-N-((1S)-2-((4-((R or S)-2-hydroxy-1-((S)-2-oxo-4-(trifluoromethyl)imidazolidin-1-yl)ethyl)pyridin-2-yl)amino)-1-((1r,4S)-4-methylcyclohexyl)-2-oxoethyl)-1,2,5-oxadiazole-3-carboxamide] displayed an IC50 of 0.039 µM.

As for `COCC(c1ccnc(NC(=O)C(NC(=O)C(F)(F)c2ccnn2C)C2CCC(C)CC2)c1)N1CC(C(F)(F)F)NC1=O` (single isomer, unassigned) [Example 248], the half-maximal inhibitory concentration (IC50) came out at 0.054 µM.

As for `COCC(c1ccnc(NC(=O)C(NC(=O)C(F)(F)c2cccc(Cl)c2)C2CCC(C)CC2)c1)N1CC(C(F)(F)F)NC1=O` (single isomer, unassigned) [Example 249], the IC50 worked out at 0.049 µM.

In the case of `COCC(c1ccnc(NC(=O)C(NC(=O)C(F)(F)c2cc(F)cc(F)c2)C2CCC(C)CC2)c1)N1CC(C(F)(F)F)NC1=O` (single isomer, unassigned) [Example 250], the IC50 was 0.038 µM.

Consider `COCC(c1ccnc(NC(=O)C(NC(=O)C(F)(F)c2cnccn2)C2CCC(C)CC2)c1)N1CC(C(F)(F)F)NC1=O` (single isomer, unassigned) [Example 251], for which the IC50 turned out to be 0.033 µM.

`COCC(c1ccnc(NC(=O)C(NC(=O)C(F)(F)c2ccc(OC)nc2)C2CCC(C)CC2)c1)N1CC(C(F)(F)F)NC1=O` (single isomer, unassigned) [Example 252] registered a half-inhibitory concentration (IC50) of 0.049 µM.

In turn, `COCC(c1ccnc(NC(=O)C(NC(=O)Cc2cc(C)on2)C2CCC(C)CC2)c1)N1CC(C(F)(F)F)NC1=O` (single isomer, unassigned) [Example 253] came in with an IC50 of 0.106 µM.

Take `COCC(c1ccnc(NC(=O)C(NC(=O)C(F)(F)C(C)C)C2CCC(C)CC2)c1)N1CC(C(F)(F)F)NC1=O` (single isomer, unassigned) [Example 255]: the half-inhibitory concentration (IC50) stood at 0.071 µM.

`COC[C@H](c1ccnc(NC(=O)C(NC(=O)c2nonc2C2CC2)C2CCC(F)CC2)c1)N1C[C@@H](C(F)(F)F)NC1=O` (single isomer, unassigned) [Example 276] had an IC50 of 0.024 µM.

Turning to `COC[C@H](c1ccnc(NC(=O)C(NC(=O)c2nonc2C2CC2)C2CCC(F)CC2)c1)N1C[C@@H](C(F)(F)F)NC1=O` (single isomer, unassigned) [Example 277], the IC50 amounted to 0.044 µM.

`COC[C@H](c1ccnc(NC(=O)C(NC(=O)c2nonc2C2CC2)C2CCC(F)CC2)c1)N1C[C@@H](C(F)(F)F)NC1=O` (single isomer, unassigned) [Example 278] yielded an IC50 of 1.89 µM.

In turn, `COC[C@H](c1ccnc(NC(=O)C(NC(=O)c2nonc2C2CC2)C2CCC(F)CC2)c1)N1C[C@@H](C(F)(F)F)NC1=O` (single isomer, unassigned) [Example 279] came in with an IC50 of 12 µM.

`CCn1nccc1C(=O)NC(C(=O)Nc1cc([C@@H](COC)N2C[C@@H](C(F)(F)F)NC2=O)ccn1)C1CCC(F)CC1` (single isomer, unassigned) [Example 280] gave an IC50 of 0.065 µM.

Molecule `COC[C@H](c1ccnc(NC(=O)C(NC(=O)c2nocc2OCC(F)F)C2CCC(F)CC2)c1)N1C[C@@H](C(F)(F)F)NC1=O` (single isomer, unassigned) [Example 281] gave an IC50 of 0.117 µM.

With `COC[C@H](c1ccnc(NC(=O)C(NC(=O)c2nonc2OCC(F)(F)F)C2CCC(F)CC2)c1)N1C[C@@H](C(F)(F)F)NC1=O` (single isomer, unassigned) [Example 282], the half-maximal inhibitory concentration (IC50) was found to be 0.103 µM.

Take `COC[C@H](c1ccnc(NC(=O)C(NC(=O)c2conc2C)C2CCC(F)CC2)c1)N1C[C@@H](C(F)(F)F)NC1=O` (single isomer, unassigned) [Example 283]: the IC50 is 0.097 µM.

Consider `COC[C@H](c1ccnc(NC(=O)C(NC(=O)c2nocc2C)C2CCC(F)CC2)c1)N1C[C@@H](C(F)(F)F)NC1=O` (single isomer, unassigned) [Example 284], for which the IC50 is 0.062 µM.

For the molecule `CCc1nocc1C(=O)NC(C(=O)Nc1cc([C@@H](COC)N2C[C@@H](C(F)(F)F)NC2=O)ccn1)C1CCC(F)CC1` (single isomer, unassigned) [Example 286], the IC50 was 0.04 µM.

As to `COC[C@H](c1ccnc(NC(=O)C(NC(=O)c2nonc2C)C2CCC(F)CC2)c1)N1C[C@@H](C(F)(F)F)NC1=O` (single isomer, unassigned) [Example 287], the IC50 was determined as 0.047 µM.

For `COC[C@H](c1ccnc(NC(=O)C(NC(=O)c2ccnn2C)C2CCC(F)CC2)c1)N1C[C@@H](C(F)(F)F)NC1=O` (single isomer, unassigned) [Example 288], the IC50 worked out at 0.084 µM.

On to `COC[C@H](c1ccnc(NC(=O)C(NC(=O)c2ccnn2C(C)C)C2CCC(F)CC2)c1)N1C[C@@H](C(F)(F)F)NC1=O` (single isomer, unassigned) [Example 289], for which the concentration for half-maximal inhibition (IC50) came to 0.125 µM.

On to `CCc1nonc1C(=O)N[C@H](C(=O)Nc1cc(CN2C[C@@H](C(F)(F)F)NC2=O)ccn1)[C@H]1CC[C@H](F)CC1` (single isomer, unassigned) [Example 290], for which the IC50 amounted to 0.16 µM.

In turn, `COC[C@H](c1ccnc(NC(=O)C(NC(=O)c2nonc2C2CC2)C2CCC(C)(F)CC2)c1)N1C[C@@H](C(F)(F)F)NC1=O` (single isomer, unassigned) [Example 295] came in with an IC50 of 0.025 µM.

`COC[C@H](c1ccnc(NC(=O)C(NC(=O)c2nonc2C2CC2)C2CCC(C)(F)CC2)c1)N1C[C@@H](C(F)(F)F)NC1=O` (single isomer, unassigned) [Example 296] registered a 50% inhibitory concentration (IC50) of 4.49 µM.

`COC[C@H](c1ccnc(NC(=O)C(NC(=O)c2nonc2C2CC2)C2CCC(C)(F)CC2)c1)N1C[C@@H](C(F)(F)F)NC1=O` (single isomer, unassigned) [Example 297] displayed an IC50 of 4.8 µM.

The molecule `COC[C@H](c1ccnc(NC(=O)C(NC(=O)c2nonc2C)C2CCC(C)(F)CC2)c1)N1C[C@@H](C(F)(F)F)NC1=O` (single isomer, unassigned) [Example 298] showed an IC50 of 0.085 µM.

For the molecule `CCn1nccc1C(=O)NC(C(=O)Nc1cc([C@@H](COC)N2C[C@@H](C(F)(F)F)NC2=O)ccn1)C1CCC(C)(F)CC1` (single isomer, unassigned) [Example 299], the IC50 worked out at 0.072 µM.

Molecule `CCc1conc1C(=O)N[C@H](C(=O)Nc1cc([C@@H](COC)N2C[C@@H](C(F)(F)F)NC2=O)ccn1)C1CCCC(F)(F)C1` (single isomer, unassigned) [Example 304] displayed a half-inhibitory concentration (IC50) of 0.026 µM.

The molecule `CCc1conc1C(=O)N[C@H](C(=O)Nc1cc([C@@H](COC)N2C[C@@H](C(F)(F)F)NC2=O)ccn1)[C@H]1CCCC(F)(F)C1` (single isomer, unassigned) [Example 305] had an IC50 of 0.029 µM.

The molecule `CCc1nocc1C(=O)N[C@H](C(=O)Nc1cc([C@@H](COC)N2C[C@@H](C(F)(F)F)NC2=O)ccn1)[C@H]1CCCC(F)(F)C1` (single isomer, unassigned) [Example 306] registered an IC50 of 0.047 µM.

These data come from patent US20260200928A1, “THERAPEUTIC COMPOUNDS” (Sanofi, priority 2022, published 2026).
